Here are results for 22 compounds from patent US20240190821A1, “SULFONAMIDE SUBSTITUTED N-(1H-INDOL-7-YL)BENZENESULFONAMIDES AND USES THEREOF” (Triana Biomedicines, Inc., priority 2021, published 2024).

Structures are written as SMILES.

Test [1] has as its target T1, DCAF15-RBM39 ternary complex (Homo sapiens, UniProt Q14498+Q66K64).
T1 construct: (RRM2)
Briefly: Compound-induced DCAF15-RBM39 ternary complex formation, AlphaLISA. In kind it is biochemical. The settings on record: AlphaLISA, His-tagged DCAF15 complex and biotin-carrying RBM39; read-out: Ternary-RBM39 (RRM2) EC50. As for the experimental part:
Compound-induced DCAF15-RBM39 ternary complex formation was monitored using AlphaLISA® assays (Perkin Elmer, Waltham, MA). […] 9.8 ul of this protein mixture was then mixed with the compounds in the assay plate and incubated for one hour at room temperature. Reaction mixtures with no compounds added were included as negative controls, while a His-tagged and biotinylated GST protein was included to track general assay performance. […] The beads were then added to the assay plate sequentially with incubation at room temperature for 1-2 hours after each addition.

A further test addresses DCAF15 (Homo sapiens, UniProt Q66K64). Briefly: Binary interaction between compounds and DCAF15, HTRF competition assay. The settings on record: HTRF competition with Alexa Fluor 647 tracer, His-tagged DCAF15 complex; read-out: DCAF15 IC50. Type of test: binding. As for the experimental part:
DCAF15 interactions with test compounds were monitored using HTRF competition assays (Cisbio, Bedford, MA). […] These two solutions were mixed and incubated for 15 min at room temperature. 9.8 ul of the tracer solution and 10 ul of the DCAF15/mAb Anti-6His-Eu cryptate Gold mixture were added sequentially to each well in the assay plate. Reaction mixtures with no DCAF15 added were included as […] controls. […] Binding was estimated based on ratiometric analysis and titration curves were generated in GraphPad Prism (7.00, GraphPad, La Jolla, CA).

DCAF15, sequence (Q66K64 whole entry): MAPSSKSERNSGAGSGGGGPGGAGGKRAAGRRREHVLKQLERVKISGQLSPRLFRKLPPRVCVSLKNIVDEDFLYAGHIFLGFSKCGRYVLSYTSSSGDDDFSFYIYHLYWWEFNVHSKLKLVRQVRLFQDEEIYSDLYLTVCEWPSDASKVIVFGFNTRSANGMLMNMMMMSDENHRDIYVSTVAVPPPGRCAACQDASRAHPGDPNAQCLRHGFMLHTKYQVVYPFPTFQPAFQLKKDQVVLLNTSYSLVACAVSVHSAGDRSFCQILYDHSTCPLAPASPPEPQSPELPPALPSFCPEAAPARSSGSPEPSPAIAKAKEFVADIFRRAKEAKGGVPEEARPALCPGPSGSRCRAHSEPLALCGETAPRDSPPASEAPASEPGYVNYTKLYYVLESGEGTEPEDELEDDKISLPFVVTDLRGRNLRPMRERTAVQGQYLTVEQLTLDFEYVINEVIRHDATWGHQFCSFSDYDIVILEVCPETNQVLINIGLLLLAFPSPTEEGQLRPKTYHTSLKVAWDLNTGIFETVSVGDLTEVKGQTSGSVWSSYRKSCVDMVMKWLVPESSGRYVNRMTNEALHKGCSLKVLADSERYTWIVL
DCAF15, sequence (Q16531 whole entry partner): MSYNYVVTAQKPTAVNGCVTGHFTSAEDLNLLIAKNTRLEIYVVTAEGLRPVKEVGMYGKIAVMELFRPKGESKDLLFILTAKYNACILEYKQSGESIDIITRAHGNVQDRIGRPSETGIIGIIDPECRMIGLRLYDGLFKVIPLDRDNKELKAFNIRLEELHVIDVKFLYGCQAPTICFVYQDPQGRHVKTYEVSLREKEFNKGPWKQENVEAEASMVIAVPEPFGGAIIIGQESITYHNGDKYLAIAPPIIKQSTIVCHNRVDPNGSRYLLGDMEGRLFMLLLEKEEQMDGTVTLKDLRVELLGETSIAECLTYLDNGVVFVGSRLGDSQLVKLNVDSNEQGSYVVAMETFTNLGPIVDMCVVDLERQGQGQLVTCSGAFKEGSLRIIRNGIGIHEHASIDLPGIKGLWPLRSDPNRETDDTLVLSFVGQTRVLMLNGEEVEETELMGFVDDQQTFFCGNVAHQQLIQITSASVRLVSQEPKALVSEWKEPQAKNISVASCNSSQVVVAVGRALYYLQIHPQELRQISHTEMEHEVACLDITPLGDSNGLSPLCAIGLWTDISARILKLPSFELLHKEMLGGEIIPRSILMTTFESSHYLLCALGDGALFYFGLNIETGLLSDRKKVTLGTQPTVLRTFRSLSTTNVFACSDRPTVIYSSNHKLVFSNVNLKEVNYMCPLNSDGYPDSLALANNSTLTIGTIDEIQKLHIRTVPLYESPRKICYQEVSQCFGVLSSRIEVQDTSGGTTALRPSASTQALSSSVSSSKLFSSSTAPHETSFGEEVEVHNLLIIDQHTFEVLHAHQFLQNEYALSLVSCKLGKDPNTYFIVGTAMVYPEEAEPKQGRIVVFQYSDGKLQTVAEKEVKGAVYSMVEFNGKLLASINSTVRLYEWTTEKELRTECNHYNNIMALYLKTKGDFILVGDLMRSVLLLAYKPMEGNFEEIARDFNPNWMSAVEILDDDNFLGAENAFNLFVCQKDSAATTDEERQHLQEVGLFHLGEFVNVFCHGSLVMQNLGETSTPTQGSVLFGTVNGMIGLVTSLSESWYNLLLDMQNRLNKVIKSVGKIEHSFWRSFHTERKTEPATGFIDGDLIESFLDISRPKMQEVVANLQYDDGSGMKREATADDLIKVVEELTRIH
T1 sequence (Q66K64 whole entry): as the sequence (Q66K64 whole entry) above
T1 sequence (Q14498 250-328 limits assumed): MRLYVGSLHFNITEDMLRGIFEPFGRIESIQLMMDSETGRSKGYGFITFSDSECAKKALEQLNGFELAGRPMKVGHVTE
T1 sequence (Q16531 whole entry partner): as the sequence (Q16531 whole entry partner) above

For the compound `O=S(=O)(Nc1ccc(Cl)c2c(Cl)c[nH]c12)c1ccc(S(=O)(=O)N2CCC(Oc3cccnc3)CC2)cc1` [Compound 39, N-(3,4-dichloro-1H-indol-7-yl)-4-((4-(pyridin-3-yloxy)piperidin-1-yl)sulfonyl)benzene sulfonamide], the half-maximal effective concentration (EC50) in test [1] is less than 5000 nM. Also, the IC50 on DCAF15 is less than 20 µM.

On to `Cc1ccnc(CNS(=O)(=O)c2ccc(S(=O)(=O)Nc3ccc(Cl)c4c(Cl)c[nH]c34)cc2)c1` [Compound 16, N^1-(3,4-dichloro-1H-indol-7-yl)-N^4-((4-methylpyridin-2-yl)methyl)benzene-1,4-disulfonamide], for which the EC50 in test [1] is less than 20000 nM. Further, the IC50 on DCAF15 was less than 5 µM.

Regarding `CCc1nc(CN(C)S(=O)(=O)c2ccc(S(=O)(=O)Nc3ccc(Cl)c4c(Cl)c[nH]c34)cc2)no1` [Compound 20, N^1-(3,4-dichloro-1H-indol-7-yl)-N^4-((5-ethyl-1,2,4-oxadiazol-3-yl)methyl)-N4. methylbenzene-1,4-disulfonamide], the EC50 in test [1] was less than 5000 nM. At DCAF15, the IC50 is less than 5 µM.

For the compound `O=S(=O)(NCCCOCc1ccccc1)c1ccc(S(=O)(=O)Nc2ccc(Cl)c3c(Cl)c[nH]c23)cc1` [Compound 5, N^1-(3-(benzyloxy)propyl)-N^4-(3,4-dichloro-1H-indol-7-yl)benzene-1,4-disulfonamide], the EC50 in test [1] is less than 20000 nM. Moreover, the half-maximal inhibitory concentration (IC50) on DCAF15 was less than 100 µM.

Consider `O=S(=O)(Nc1ccc(Cl)c2c(Cl)c[nH]c12)c1cccc(Br)c1` [Compound 76, 3-bromo-N-(3,4-dichloro-1H-indol-7-yl)benzenesulfonamide], for which the half-maximal effective concentration (EC50) in test [1] is less than 5000 nM. Further, at DCAF15, the IC50 was less than 20 µM.

Consider `COc1cccc(Oc2ccc(CNS(=O)(=O)c3ccc(S(=O)(=O)Nc4ccc(Cl)c5c(Cl)c[nH]c45)cc3)cn2)c1` [Compound 17, N^1-(3,4-dichloro-1H-indol-7-yl)-N^4-((6-(3-methoxyphenoxy)pyridin-3-yl)methyl)benzene-1,4-disulfonamide], for which, in test [1], the EC50 is less than 20000 nM. The IC50 on DCAF15 is less than 20 µM.

For `CC(C)(C)OC(=O)NC1(CNS(=O)(=O)c2ccc(S(=O)(=O)Nc3ccc(Cl)c4c(Cl)c[nH]c34)cc2)CC1` [Compound 9, tert-butyl (1-(((4-(N-(3,4-dichloro-1H-indol-7-yl)sulfamoyl)phenyl)sulfonamido)methyl)cyclopropyl) carbamate], in test [1], the EC50 is less than 20000 nM. The half-inhibitory concentration (IC50) at DCAF15 is less than 20 µM.

Consider `CN1CC(CCNS(=O)(=O)c2ccc(S(=O)(=O)Nc3ccc(Cl)c4c(Cl)c[nH]c34)cc2)C1` [Compound 22, N^1-(3,4-dichloro-1H-indol-7-y1)-N^4-(2-(1-methylazetidin-3-yl)ethyl)benzene-1,4-disulfonamide], for which the 50% effective concentration (EC50) in test [1] was less than 1000 nM. Besides, the IC50 at DCAF15 is less than 5 µM.

Turning to `CCCN(C(C)=O)c1ccc(S(=O)(=O)Nc2ccc(Cl)c3c(Cl)c[nH]c23)cc1` [Compound 71, N-(4-(N-(3,4-dichloro-1H-indol-7-yl)sulfamoyl)phenyl)-N-propylacetamide], the EC50 in test [1] is less than 1000 nM. The IC50 on DCAF15 was less than 5 µM.

Turning to `Cc1ccc(NS(=O)(=O)c2ccc(S(=O)(=O)N3CCN4CCCC4C3)cc2)c2[nH]cc(C#N)c12` (centres unmarked) [Compound 91, N-(3-cyano-4-methyl-1H-indol-7-yl)-4-((hexahydropyrrolo[1,2-a]pyrazin-2(1H)-yl)sulfonyl)benzenesulfonamide], the half-maximal effective concentration (EC50) in test [1] was less than 1000 nM. Further, the IC50 at DCAF15 was less than 100 µM.

For `O=S(=O)(Nc1ccc(Cl)c2c(Cl)c[nH]c12)c1ccc(S(=O)(=O)C2CCNCC2)cc1` [Compound 57, N-(3,4-dichloro-1H-indol-7-yl)-4-(piperidin-4-ylsulfonyl)benzene sulfonamide], the EC50 in test [1] is less than 1000 nM. Moreover, on DCAF15, the IC50 was less than 5 µM.

Consider `CCCN(c1ccc(S(=O)(=O)Nc2ccc(Cl)c3c(Cl)c[nH]c23)cc1)S(=O)(=O)N1CCNCC1` [Compound 67, N-(4-(N-(3,4-dichloro-1H-indol-7-yl)sulfamoyl)phenyl)-N-propylpiperazine-1-sulfonamide], for which, in test [1], the EC50 was less than 1000 nM. The IC50 at DCAF15 was less than 5 µM.

Consider `CC(C)C(=O)Nc1cccc(CNS(=O)(=O)c2ccc(S(=O)(=O)Nc3ccc(Cl)c4c(Cl)c[nH]c34)cc2)c1` [Compound 13, N-(3-(((4-(N-(3,4-dichloro-1H-indol-7-yl)sulfamoyl)phenyl)sulfonamido)methyl)phenyl) isobutyramide], for which the 50% effective concentration (EC50) in test [1] was less than 20000 nM. Besides, the IC50 at DCAF15 was less than 20 µM.

With `CCCN(C(=O)CN)c1ccc(S(=O)(=O)Nc2ccc(Cl)c3c(Cl)c[nH]c23)cc1` [compound 131], the EC50 in test [1] was less than 1000 nM. Besides, the IC50 at DCAF15 was less than 5 µM.

Regarding `Cc1ccc(NS(=O)(=O)c2ccc(S(=O)(=O)N3CCN(C4COC4)CC3)cc2)c2[nH]cc(C#N)c12` [Compound 86, N-(3-cyano-4-methyl-1H-indol-7-yl)-4-((4-(oxetan-3-yl)piperazin-1-yl)sulfonyl)benzenesulfonamide], the EC50 in test [1] was less than 1000 nM. The IC50 at DCAF15 is less than 20 µM.

As to `CN1CC(NS(=O)(=O)c2ccc(S(=O)(=O)Nc3ccc(Cl)c4c(Cl)c[nH]c34)cc2)CCC1=O` (centres unmarked) [Compound 32, N^1-(3,4-dichloro-1H-indol-7-yl)-N^4-(1-methyl-6-oxopiperidin-3-yl)benzene-1,4-disulfonamide], the EC50 in test [1] is less than 1000 nM. Further, the concentration for half-maximal inhibition (IC50) at DCAF15 is less than 5 µM.

With `CN(C)C(=O)CC(NS(=O)(=O)c1ccc(S(=O)(=O)Nc2ccc(Cl)c3c(Cl)c[nH]c23)cc1)c1ccccc1` (centres unmarked) [Compound 11, 3-((4-(N-(3,4-dichloro-1H-indol-7-yl)sulfamoyl)phenyl)sulfonamido)-N,N-dimethyl-3-phenylpropanamide], in test [1], the EC50 is less than 20000 nM. The IC50 on DCAF15 was less than 5 µM.

Turning to `Cc1nc2c(n1C)CCN(S(=O)(=O)c1ccc(S(=O)(=O)Nc3ccc(Cl)c4c(Cl)c[nH]c34)cc1)C2` [Compound 53, N-(3,4-dichloro-1H-indol-7-yl)-4-((1,2-dimethyl-1,4,6,7-tetrahydro-5H-imidazo[4,5-c]pyridin-5-yl)sulfonyl)benzene sulfonamide], in test [1], the half-maximal effective concentration (EC50) was less than 5000 nM. Besides, the IC50 at DCAF15 is less than 5 µM.

For `CC1CN(S(=O)(=O)c2ccc(S(=O)(=O)Nc3ccc(Cl)c4c(Cl)c[nH]c34)cc2)CCN1` (centres unmarked) [compound 109], the EC50 in test [1] was less than 1000 nM. Moreover, the IC50 on DCAF15 is less than 5 µM.

For `Cc1ccc(NS(=O)(=O)c2ccc(S(=O)(=O)N3CCC(N(C)C)C3)cc2)c2[nH]cc(C#N)c12` (centres unmarked) [Compound 80, N-(3-cyano-4-methyl-1H-indol-7-yl)-4-((3-(dimethylamino)pyrrolidine-1-yl)sulfonyl)benzenesulfonamide], the EC50 in test [1] was less than 1000 nM. The IC50 at DCAF15 was less than 20 µM.

As to `COCCOCCCNS(=O)(=O)c1ccc(S(=O)(=O)Nc2ccc(Cl)c3c(Cl)c[nH]c23)cc1` [Compound 7, N^1-(3,4-dichloro-1H-indol-7-yl)-N^4-(3-(2-methoxyethoxy)propyl)benzene-1,4-disulfonamide], the EC50 in test [1] was less than 5000 nM. Moreover, the IC50 on DCAF15 was less than 20 µM.

Take `CCCN(C1CCNCC1)S(=O)(=O)c1ccc(S(=O)(=O)Nc2ccc(Cl)c3c(Cl)c[nH]c23)cc1` [Compound 30, N^1-(3,4-dichloro-1H-indol-7-yl)-N^4-(piperidin-4-yl)-N^4-propylbenzene-1,4-disulfonamide]: in test [1], the EC50 is less than 1000 nM. Moreover, the IC50 on DCAF15 is less than 5 µM.
